The subject of one data set is lapin. Put plainly: Chronic toxicity in the rabbit, ocular instillation, 13 weeks. The class given is in vivo. The conditions noted are these: instillation oculaire, 4 doses par jour, solution à 0,9 g (pour 100 ml), 13 semaines.
In a further data set the test system is chien. The data set is described as follows: Chronic toxicity in the dog, oral, 13 weeks. The class given is in vivo. Conditions: 35 mg/Kg/jour, 13 semaines.
Data set [1] in a line: Solubility (description of the product). The class given is physicochemical.

Each structure is given as a SMILES string.

On to `CCCCCCCCCCCCOCCCN` [Lopa, amino-1 dodécyloxy-3 propane], for which the “toxicité locale et/ou systématique” value in the data set on lapin and in the data set on chien was “aucune toxicité locale et/ou systématique” each time. For the same compound, the solubility in water entry in data set [1] (eau) is listed as “insoluble dans l'eau”. In data set [1] (méthanol, chloroforme, acétone, benzène), the “solubility in organic solvents” value was “soluble dans divers solvants organique”.
